In the assay the target is T1, MetNI (Escherichia coli, UniProt P30750).
T1 sequence (P30750 1-343): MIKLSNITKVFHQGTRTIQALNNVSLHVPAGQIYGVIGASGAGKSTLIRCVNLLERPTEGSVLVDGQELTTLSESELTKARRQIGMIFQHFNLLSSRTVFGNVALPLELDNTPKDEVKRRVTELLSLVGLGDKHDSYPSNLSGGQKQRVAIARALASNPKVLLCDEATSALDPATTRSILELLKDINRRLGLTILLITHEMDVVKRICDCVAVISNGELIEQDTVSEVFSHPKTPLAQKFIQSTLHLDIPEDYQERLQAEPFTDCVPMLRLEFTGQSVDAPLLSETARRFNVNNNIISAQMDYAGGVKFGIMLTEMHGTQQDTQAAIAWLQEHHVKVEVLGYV
T1 sequence (P31547 1-217 partner): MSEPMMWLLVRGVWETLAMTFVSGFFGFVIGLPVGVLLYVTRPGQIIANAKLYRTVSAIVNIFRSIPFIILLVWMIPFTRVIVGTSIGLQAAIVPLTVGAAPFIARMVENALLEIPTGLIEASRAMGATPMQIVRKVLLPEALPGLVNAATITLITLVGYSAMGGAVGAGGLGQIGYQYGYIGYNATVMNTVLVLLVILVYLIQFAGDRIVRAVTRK
The experiment in a line: ATPase activity, phosphate production assay. It counts as biochemical.

SMILES strings stand for the structures.

The IC50 is the concentration at which inhibition is half-maximal. A low value points to greater potency in that assay. In turn, `CSCC[C@H](N)C(=O)O` [L-methionine] returned an IC50 of around 30 µM.

Values taken from article PMC2527972 (Science (New York, N.Y.), 2008).
